Laboratory results taken from patent US8658668B2, “PI3 kinase/mTOR dual inhibitor” (Eli Lilly and Company, priority 2011, dated 2014).

How the values were obtained:
U87MG = test: Cell proliferation assay (CellTiter-Glo), U87MG; format: cell-based; details: Homo sapiens, U-87 MG, 96 h
Method: (§1) Plate cells in a 96-well plate at 2000 cells/well in 100 μL of cell specific medium (for U87MG use DMEM, 10% FBS, 25 mM 4-(2-hydroxyethyl)-1-piperazineethanesulfonic acid (HEPES), 1.0 mM sodium pyruvate, and 0.1 mM Non Essential Amino Acids (ATCC Cat.#30-2002); for HT1080 use Eagle's MEM, 10% FBS (ATCC Cat.#30-2003); for H1975, A2780, SJSA-1 and 786-O use RPMI 1640, 10% FBS (ATCC Cat.#30-2001); for A204 use McCoy's 5A, 10% FBS (ATCC Cat.#30-2007) except in column 1 use medium only as the blank control. Incubate the plates overnight at 37° C. and 5% CO2. On the next day, prepare compound stocks at 1 mM in DMSO and serially dilute in DMSO in a 96-well round bottom polypropylene plate. Assay compounds at 10 concentrations in duplicate, 4 compounds per plate.
(§2) Transfer 4 μL of the DMSO serial dilutions to a 96 well plate and add 196 μL of culture medium to create a 10× stock for dosing. Gently transfer 11 μL of each dosing stock to the corresponding well of the cell plate resulting in a 0.2% DMSO concentration and a 111 μL final volume. […]
(§3) Prepared the CellTiter-Glo reagent (Promega, Cat: G7571) and add 100 µL to each well after the incubation is complete, homogenize the cells by mixing on an orbital shaker for 2 min and then incubate at RT for 10 min to allow the luminescent signal to stabilize. Record the luminescent raw data with a Wallac Victor V plate reader. […]

HT-1080 = test: Cell proliferation assay (CellTiter-Glo), HT-1080; format: cell-based; details: Homo sapiens, HT-1080, 72 h
Method: as §1, §2, §3

[1] = test system: PXF 1752 human tumor xenograft cells; test: Oncotest tumor clonogenic assay, PXF 1752; format: cell-based; details: colony formation, Pleuramesothelioma PXF 1752, pleuramesothelioma, read-out: Absolute IC50
[2] = test system: human glioblastoma cells U87MG; test: Xenograft tumor model, U87MG; format: in vivo, mouse; details: oral gavage
Method: Expand human glioblastoma cells U87MG and human renal carcinoma cells 786-O, in culture, harvest and inject subcutaneously onto the rear flank of athymic nude mice. Expand human non-small cell lung cancer cells NCI-H1975 in culture, harvest and inject subcutaneously onto the rear flank of CD-1 nu/nu mice. Prepare test compound in an appropriate vehicle and administer by oral gavage when tumors are established (7-21 days after implant). Tumor response is determined by tumor volume measurement performed twice a week during the course of treatment. Body weight is taken as a general measurement of toxicity.

pS473 AKT = test: In vivo target inhibition in U87MG tumors, pS473 AKT; details: Mus musculus, U-87 MG; for inhibition at 0.5 mg/kg: 0.5 mg/kg oral; for inhibition at 1.5 mg/kg: 1.5 mg/kg oral; for inhibition at 3 mg/kg: 3 mg/kg oral; for inhibition at 6 mg/kg: 6 mg/kg oral; for inhibition at 10 mg/kg: 10 mg/kg oral; for inhibition at 12 mg/kg: 12 mg/kg oral
Method: Implant U87MG human glioblastoma cells (5×10^6) subcutaneously into the flank of athymic nude mice in 0.2 mL of matrigel. Ten days post-implantation, dose mice orally according to a time course, single dose/single time point, or dose response protocol for the determination of TMED50 (threshold minimum effective dose). Flash freeze tumors at harvest and collect blood for the determination of parent compound plasma exposure and the calculation of TMEC50 (threshold minimum effective concentration) in the case of dose response studies. Homogenize tumors in 500 μL of XY Lysis Buffer (10 μg/mL Leupeptin, 10 μg/mL Trypsin-Chymotrypsin Inhibitor, 10 μg/mL Tosyl phenyl-alanyl chloromethyl ketone, 10 μg/mL Aprotinin, 60 mM Beta-Glycerol Phosphate, 1% Triton X100, 25 mM Tris pH 7.5, 2.5 mM Pyrophosphate, 150 mM NaCl, 2 mM p-tosyl-L-arginine methyl ester, 15 mM para-nitrophenyl phosphate, 5 mM benzamidine, 1 mM sodium vanadate, 10 mM sodium fluoride, 50 μg/mL phenyl-methane sulfonyl fluoride, 1 mM 1,4-dithiothreitol (DTT), 15 mM EDTA pH 8.0, 5 mM EGTA pH 8.0, 1 μM Microcystin, 1 μM Okadaic Acid, and 1 Roche Complete protease inhibitor mini-tablet per 10 mL) using RNase Free Pellet Pestle (Kimble-Kontes). Aliquot lysates and either assay immediately or store at −80° C. for later testing. Use the multiplex format of Meso Scale Discovery (Gaithersburg, Md.) ELISA technology and measure in vivo target inhibition of PI3K and mTOR to assess effects on phosphorylation of the threonine 308 site of AKT, a downstream effector of PI3K; phosphorylation on the threonine 389 site of p70 S6K and on the serine 240/244 site of S6RP, downstream effectors of mTORC1; phosphorylation of the serine 473 site of AKT, a downstream effector of mTORC2. Add 20 μg of lysate to carbon electrode containing 96-well plates pre-spotted with the appropriate capture antibodies. Probe the protein of interest using a ruthenium labeled detection antibody. Pass current over the electrode in the presence of read buffer containing the co-reactant TPA, and quantitate and record the light generated by electro-chemiluminescence with the MSD Sector 6000 instrument. Calculate percent inhibitions relative to the vehicle control group and perform ANOVA analysis using the JMP software package for the determination of statistical significance.

IC50 (U87MG): 74 nM | IC50 (HT-1080): 72 nM | IC50 [1]: 32 nM
Structure (SMILES): CO[C@@H](C)Cn1c(=O)n(C)c2cnc3ccc(-c4cncc(C(C)(C)O)c4)cc3c21 [Example 1, 8-[5-(1-Hydroxy-1-methylethyl)pyridin-3-yl]-1-[(2S)-2-methoxypropyl]-3-methyl-1,3-dihydro-2H-imidazo[4,5-c]quinolin-2-one]
% TGI ([2]; 3 mg/kg BID): 38.6% | % TGI ([2]; 6 mg/kg BID): 57.7% | % TGI ([2]; 10 mg/kg BID): 86.1% | % TGI ([2]; 12 mg/kg QD): 53.4% | inhibition at 0.5 mg/kg (pS473 AKT; 0.5 hr post dose): -9% | inhibition at 0.5 mg/kg (pS473 AKT; 4 hr post dose): -28% | inhibition at 1.5 mg/kg (pS473 AKT; 0.5 hr post dose): 34% | inhibition at 1.5 mg/kg (pS473 AKT; 4 hr post dose): -12% | inhibition at 3 mg/kg (pS473 AKT; 0.25 hr post dose): 23% | inhibition at 3 mg/kg (pS473 AKT; 0.5 hr post dose): 63% | inhibition at 3 mg/kg (pS473 AKT; 1 hr post dose): 12% | inhibition at 3 mg/kg (pS473 AKT; 3 hr post dose): -7% | inhibition at 3 mg/kg (pS473 AKT; 4 hr post dose): -3% | inhibition at 6 mg/kg (pS473 AKT; 0.25 hr post dose): 63% | inhibition at 6 mg/kg (pS473 AKT; 0.5 hr post dose): 77% | inhibition at 6 mg/kg (pS473 AKT; 1 hr post dose): 67% | inhibition at 6 mg/kg (pS473 AKT; 2 hr post dose): 51% | inhibition at 6 mg/kg (pS473 AKT; 4 hr post dose): -5% | inhibition at 6 mg/kg (pS473 AKT; 6 hr post dose): -8% | inhibition at 6 mg/kg (pS473 AKT; 12 hr post dose): -6% | inhibition at 10 mg/kg (pS473 AKT; 0.5 hr post dose): 90% | inhibition at 10 mg/kg (pS473 AKT; 1 hr post dose): 73% | inhibition at 10 mg/kg (pS473 AKT; 2 hr post dose): 66% | inhibition at 10 mg/kg (pS473 AKT; 4 hr post dose): 56% | inhibition at 10 mg/kg (pS473 AKT; 8 hr post dose): 13% | inhibition at 12 mg/kg (pS473 AKT; 0.5 hr post dose): 91% | inhibition at 12 mg/kg (pS473 AKT; 4 hr post dose): 44%
